Results published in patent publication US6900200B2, “Tricyclic hydroxy carboxamides and derivatives thereof tocolytic oxytocin receptor antagonists” (Wyeth, priority 2001, dated 2005).

Target: T1, human vasopressin V2 receptor subtype (Homo sapiens, UniProt P30518)
T1 construct: host or cells: CHO cells, pZeoSV vector
Assay: Vasopressin binding in CHO cell membranes expressing human vasopressin V2 subtype receptors ([3H]arginine vasopressin radioligand binding)
Conditions: for inhibition at 0.1 µM: @ 100 nM; for IC50: value printed in parentheses
Text: Vasopressin Binding in Chinese Hamster Ovary Cell Membranes Expressing Human Vasopressin V2 Subtype Receptors
Chinese Hamster Ovary (CHO) cells stably transfected with the human V2 subtype receptors were obtained from M. Thibonnier, Case Western Reserve University School of Medicine, Cleveland, Ohio.
A. Passaging and Amplification of Cells
CHO cells transfected with the human vasopressin V2 subtype receptors obtained from M. Thibonnier (pZeoSV vector) are allowed to grow to confluency (approx. >90%) in T-150 flasks under sterile conditions, in a cell culture medium ofF-12 Nutrient Mixture (HAM) with L-glutamine (Gibco Cat. #11765-054) containing 15 mM HEPES (Gibco Cat. #15630-080), 1% antibiotic/antimycotic (add 5 mL 100×, Gibco Cat. #15240-062 per 500 mL F-12), 250 μg/mL Zeocin (add 1.25 mL of 100 mg/mL Invitrogen R-250-01 per 500 mL F-1 2) and 10% Fetal Bovine Serum (Qualified, heat inactivated, Gibco Cat. #16140-063). The medium is removed by aspiration and the cells washed with 10 mL of Hank's Balanced Salt solution (Gibco Cat. #14175-095). The salt solution is removed by aspiration and the cells trypsinized with 5 mL of trypsin-EDTA (0.05% trypsin, 0.53 mM EDTA-4Na, Gibco Cat. #25300-070) for 1 min. The trypsin is removed by aspiration and the cells dislodged by tapping. Cell Culture medium (e.g. 30 mL for 1:30 split) is immediately added and mixed well to inactivate trypsin. 1 mL of detached cells is added to new culture flasks containing fresh Cell Culture medium (e.g. into 25 mL per T-150 flask), and mixed gently. The cells are incubated at 37° C. in 5% CO2. The medium is changed at 3 to 4 day interval (or as appropriate). The cells grow to confluency (approx. >75%-95%) within 7-8 days. All steps are done under sterile conditions.
The cells are washed twice gently with Hank's Balanced Salt solution (e.g. use 10 mL per T-150 flask). The excess solution is removed and the cells bathed for 15-30 min. in an enzyme-free Cell Dissociation Buffer (e.g. use 8 mL Hank's Based, Gibco Cat. # 13150-016 per T-150 flask) until cells are loosened. The contents are transferred to centrifuge tubes (50 mL) kept in ice bath. All subsequent steps are done at 4° C. The tubes are centrifuged at 300×g for 15 min (1380 rpm on SORVAL, Model RT6000D, using the rotor for 50 mL tubes). The supernatant is discarded and the cells suspended in homogenizing buffer (10 mM Tris-HCl containing 0.25 M sucrose and 1 mM EDTA, pH 7.4) ensuring that the volume of the buffer is about ten times the volume of the cell pellet. The cells are pooled into a centrifuge tube (50 mL) and homogenized with Polytron at setting 6 for 10 sec. The homogenate is transferred into a Potter-Elvjehm homogenizer and homogenized with 3 strokes. The homogenate is centrifuged at 1500×g for 60 min at 4° C. (3100 rpm using SORVAL, model RT6000D, using the rotor for 50 mL tubes). The pellet is discarded. The supernatant is centrifuged at 100,000×g for 60 min. at 4° C. (Beckman L8-80M ultracentrifuge; spin at 37,500 rpm with rotor type 70 Ti for 50 mL tubes; 38,000 rpm with type 80Ti for 15 mL tubes; or 35,800 rpm with rotor type 45Ti). The supernantant is discarded and the pellet suspended in 3 to 4 mL of Tris buffer (50 mM TRIS—HCl, pH 7.4). The protein content is estimated by the Bradford or Lowry method. The volume of the membrane suspension is adjusted with the membrane buffer (50 mM Tris-HCl containing 0.1% BSA and 0.1 mM PMSF) to give 3.0 mg/mL (or as appropriate) of protein. The membranes are aliquoted and stored at −70. ° C.
C. Radioligand Binding Assay
In wells of a 96-well format microtiter plate, is added 90, 110 or 130 μL (to make up a final volume of 200 μL) of assay buffer containing 50 mM of Tris-HCl (pH 7.4), […], 1 mg % aprotinin, 1 mg % leupeptin, 2 mg % 1,10-phenanthroline, 10 mg % trypsin inhibitor, and 0.1 mM PMSF. The inhibitors are added on the day of the experiment. […]

T1 sequence (P30518 whole entry): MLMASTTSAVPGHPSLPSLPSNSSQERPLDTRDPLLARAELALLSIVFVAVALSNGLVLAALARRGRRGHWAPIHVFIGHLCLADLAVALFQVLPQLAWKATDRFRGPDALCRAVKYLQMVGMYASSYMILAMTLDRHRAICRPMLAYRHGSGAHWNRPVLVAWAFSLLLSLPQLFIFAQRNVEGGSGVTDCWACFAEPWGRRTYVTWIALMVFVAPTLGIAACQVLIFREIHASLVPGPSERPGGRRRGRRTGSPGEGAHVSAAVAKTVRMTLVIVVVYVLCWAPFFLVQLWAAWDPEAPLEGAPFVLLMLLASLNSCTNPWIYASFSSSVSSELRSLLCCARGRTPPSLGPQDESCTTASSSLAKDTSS

SMILES | inhibition at 0.1 µM | IC50
COc1ccccc1-c1ccc(C(=O)N2Cc3ccc(C(=O)N(C)C[C@H](O)CO)n3Cc3ccccc32)cc1C (single isomer, unassigned) [Example 15] | 74% | 
COc1ccccc1-c1ccc(C(=O)N2Cc3ccc(C(=O)N(C)C[C@@H](O)CO)n3Cc3ccccc32)cc1C (single isomer, unassigned) [Example 16] | 51% | 
COc1cc(C(=O)N2Cc3ccc(C(=O)N(C)C[C@@H](O)[C@H](O)[C@H](O)[C@@H](O)CO)n3Cc3ccccc32)ccc1-c1ccccc1C(F)(F)F (stereo in doubt) [Example 23, 10-{[2-Methoxy-2′-trifluoromethyl-[1,1′-biphenyl]-4-yl]carbonyl}-N-methyl-N-[(2R,3S,4R,5S)-2,3,4,5,6-pentahydroxyhexyl]-10,11-dihydro-5H-pyrrolo[2,1-c][1,4]benzodiazepine-3-carboxamide] |  | 451 nM
Cc1cc(C(=O)N2Cc3ccc(C(=O)N(CCO)CCO)n3Cc3ccccc32)ccc1-c1ccccc1C(F)(F)F [Example 1, 10-[(2-Methyl-2′-trifluoromethyl-[1,1′-biphenyl]-4-yl)carbonyl]-10,11-dihydro-5H-pyrrolo[2,1-c][1,4]benzodiazepine-3-carboxylic acid bis-(2-hydroxy-ethyl)-amide] |  | 610 nM
Cc1cc(C(=O)N2Cc3ccc(C(=O)N(C)CC(O)CO)n3Cc3ccccc32)ccc1-c1ccccc1C(F)(F)F (centres unmarked) [Example 2, 10-[(2-Methyl-2′-trifluoromethyl-[1,1′-biphenyl]-4-yl)carbonyl]-10,11-dihydro-5H-pyrrolo[2,1-c][1,4]benzodiazepine-3-carboxylic acid (2,3-dihydroxy-propyl)-methyl-amide] |  | 633 nM
Cc1cc(C(=O)N2Cc3ccc(C(=O)NC(CO)(CO)CO)n3Cc3ccccc32)ccc1-c1ccccc1C(F)(F)F [Example 3, 10-[(2-Methyl-2′-trifluoromethyl-[1,1′-biphenyl]-4-yl)carbonyl]-10,11-dihydro-5H-pyrrolo[2,1-c][1,4]benzodiazepine-3-carboxylic acid (2-hydroxy-1,1-bis-hydroxymethyl-ethyl)-amide] | 13% | 
Cc1cc(C(=O)N2Cc3ccc(C(=O)N(C)C[C@H](O)[C@@H](O)[C@H](O)[C@H](O)CO)n3Cc3ccccc32)ccc1-c1ccccc1C(F)(F)F [Example 4, 10-[(2-Methyl-2′-trifluoromethyl-[1,1′-biphenyl]-4-yl)carbonyl]-10,11-dihydro-5H-pyrrolo[2,1-c][1,4]benzodiazepine-3-carboxylic acid methyl-((2S,3R,4R,5R)-2,3,4,5,6-pentahydroxy-hexyl)-amide] |  | 617 nM
Cc1cc(C(=O)N2Cc3ccc(C(=O)N4CCN(C[C@H](O)CO)CC4)n3Cc3ccccc32)ccc1-c1ccccc1C(F)(F)F [Example 5, (2S)-3-{4-[(10-{[2-Methyl-2′-trifluoromethyl-[1,1′-biphenyl]-4-yl]carbonyl}-10,11-dihydro-5H-pyrrolo[2,1-c][1,4]benzodiazepin-3-yl)carbonyl]piperazin-1-yl}propane-1,2-diol] |  | 1190 nM
Cc1cc(C(=O)N2Cc3ccc(C(=O)N4CCN(C[C@@H](O)CO)CC4)n3Cc3ccccc32)ccc1-c1ccccc1C(F)(F)F [Example 6, (2R)-3-{4-[(10-{[2-Methyl-2′-trifluoromethyl-[1,1′-biphenyl]-4-yl]carbonyl}-10,11-dihydro-5H-pyrrolo[2,1-c][1,4]benzodiazepin-3-yl)carbonyl]piperazin-1-yl}propane-1,2-diol] |  | 1390 nM
COCCN1CCN(C(=O)c2ccc3n2Cc2ccccc2N(C(=O)c2ccc(-c4ccccc4C(F)(F)F)c(C)c2)C3)CC1 [Example 7, Methyl 2-{4-[(10-{[2-methyl-2′-trifluoromethyl-[1,1′-biphenyl]-4-yl]carbonyl}-10,11-dihydro-5H-pyrrolo[2,1-c][1,4]benzodiazepin-3-yl)carbonyl]piperazin-1-yl}ethyl ether] | 16% | 
COC[C@H](O)CN1CCN(C(=O)c2ccc3n2Cc2ccccc2N(C(=O)c2ccc(-c4ccccc4C(F)(F)F)c(C)c2)C3)CC1 [Example 8, (2R)-1-Methoxy-3-{4-[(10-{[2-methyl-2′-trifluoromethyl-[1,1′-biphenyl]-4-yl]carbonyl}-10,11-dihydro-5H-pyrrolo[2,1-c][1,4]benzodiazepin-3-yl)carbonyl]piperazin-1-yl}propan-2-ol] |  | 769 nM
COC[C@@H](O)CN1CCN(C(=O)c2ccc3n2Cc2ccccc2N(C(=O)c2ccc(-c4ccccc4C(F)(F)F)c(C)c2)C3)CC1 [Example 9, [3-({4-[(2S)-2-Hydroxy-3-methoxypropyl]-1-piperazinyl}carbonyl)-5H-pyrrolo[2,1-c][1,4]benzodiazepin-10(11H)-yl][2-methyl-2′-trifluoromethyl-[1,1′-biphenyl]-4-yl]methanone] |  | 1230 nM
COCC(CN(C)C(=O)c1ccc2n1Cc1ccccc1N(C(=O)c1ccc(-c3ccccc3C(F)(F)F)c(C)c1)C2)OC (centres unmarked) [Example 10, N-(2,3-Dimethoxypropyl)-N-methyl-10-{[2-methyl-2′-trifluoromethyl-[1,1′-biphenyl]-4-yl]carbonyl}-10,11-dihydro-5H-pyrrolo[2,1-c][1,4]benzodiazepine-3-carboxamide] |  | 2220 nM
Cc1cc(C(=O)N2Cc3ccc(C(=O)N(C)CC4COC(=O)O4)n3Cc3ccccc32)ccc1-c1ccccc1C(F)(F)F (centres unmarked) [Example 11, 10-[(2-Methyl-2′-trifluoromethyl-[1,1′-biphenyl]-4-yl)carbonyl]-10,11-dihydro-5H-pyrrolo[2,1-c][1,4]benzodiazepine-3-carboxylic acid methyl-[(2-oxo-[1,3]dioxolan-4-yl)methyl]-amide] |  | 356 nM
Cc1cc(C(=O)N2Cc3ccc(C(=O)N(C)C[C@@H]4OC(=O)O[C@H]4[C@H](O)[C@H]4COC(=O)O4)n3Cc3ccccc32)ccc1-c1ccccc1C(F)(F)F [Example 12, N-[((4S,5S)-5-{(R)-Hydroxy[(4R)-2-oxo-1,3-dioxolan-4-yl]methyl}-2-oxo-1,3-dioxolan-4-yl)methyl]-N-methyl-10-{[2-methyl-2′-(trifluoromethyl)[1,1′-biphenyl]-4-yl]carbonyl}-10,11-dihydro-5H-pyrrolo[2,1-c]benzodiazepine-3-carboxamide] |  | 763 nM
CC(=O)OCC(CN(C)C(=O)c1ccc2n1Cc1ccccc1N(C(=O)c1ccc(-c3ccccc3C(F)(F)F)c(C)c1)C2)OC(C)=O (centres unmarked) [Example 13, 2-(Acetyloxy)-1-({methyl[(10-{[2-methyl-2′-trifluoromethyl-[1,1′-biphenyl]-4-yl]carbonyl}-10,11-dihydro-5H-pyrrolo[2,1-c][1,4]benzodiazepin-3-yl)carbonyl]amino}methyl)ethyl acetate] |  | 990 nM
COc1ccccc1-c1ccc(C(=O)N2Cc3ccc(C(=O)N(C)CC(O)CO)n3Cc3ccccc32)cc1C (centres unmarked) [Example 14, 10-[(2′-Methoxy-2-methyl-[1,1′-biphenyl]-4-yl)carbonyl]-10,11-dihydro-5H-pyrrolo[2,1-c][1,4]benzodiazepine-3-carboxylic acid (2,3-dihydroxy-propyl)-methyl-amide] |  | 205 nM
